Results from PubChem BioAssay AID296 (DTP/NCI, 2004).
Values joined by “and” are separate entries in the source; they are usually repeats but may differ in a detail not shown here. Equal values may be shown once. Inconclusive results are not listed.

Tested on: MX-1 breast xenograft, nude mice, tumor weight T/C
Assay: NCI In Vivo Anticancer Drug Screen. Data for tumor model Human Mammary Carcinoma MX-1 Xenograft (intrarenal inoculation) in NU/NU Swiss (nude) mice
Conditions: endpoint: mean tumor weight change, higher = larger tumour
Summary of the method: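 Read-out: treated (T) over vehicle control (C) ratio of survival or tumor size. Dosing in animals carrying the transplanted tumor.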

[1] = dose: 75.0 mg/kg/injection, schedule: Q04DX003 (sc), vehicle: Klucel (hydroxypropylcellulose) (HPC)
[2] = dose: 150.0 mg/kg/injection, schedule: Q04DX003 (sc), vehicle: Klucel (hydroxypropylcellulose) (HPC)
[3] = dose: 300.0 mg/kg/injection, schedule: Q04DX003 (sc), vehicle: Klucel (hydroxypropylcellulose) (HPC)
[4] = dose: 600.0 mg/kg/injection, schedule: Q04DX003 (sc), vehicle: Klucel (hydroxypropylcellulose) (HPC)
[5] = dose: 150.0 mg/kg/injection, schedule: Q04DX003 (sc), vehicle: saline with Tween-80
[6] = dose: 300.0 mg/kg/injection, schedule: Q04DX003 (sc), vehicle: saline with Tween-80
[7] = dose: 600.0 mg/kg/injection, schedule: Q04DX003 (sc), vehicle: saline with Tween-80
[8] = dose: 1200.0 mg/kg/injection, schedule: Q04DX003 (sc), vehicle: saline with Tween-80
[9] = dose: 2400.0 mg/kg/injection, schedule: Q04DX003 (sc), vehicle: saline with Tween-80
[10] = dose: 300.0 mg/kg/injection, schedule: Q04DX003 (sc), vehicle: water
[11] = dose: 600.0 mg/kg/injection, schedule: Q04DX003 (sc), vehicle: water

Compound: C[C@]12CCC(=O)C=C1CC[C@@H]1[C@@H]2[C@@H](O)C[C@@]2(C)[C@H]1CC[C@]2(O)C(=O)CO
- T/C [1]: 117 % of control
- T/C [2]: 45 % of control
- T/C [3]: 33 % of control
- T/C [4]: 33 % of control

Compound: CCC1CC2CN(CCc3c([nH]c4ccccc34)C(C(=O)OC)(c3cc4c(cc3OC)N(C)C3C(O)(C(=O)OC)C(OC(C)=O)C5(CC)C=CCN6CCC43C65)C2)C1 (stereo unspecified)
- T/C (dose: 4.0 mg/kg/injection, schedule: Q04DX003 (sc), vehicle: saline): 36 % of control
- T/C (dose: 8.0 mg/kg/injection, schedule: Q04DX003 (sc), vehicle: saline): 4 % of control
- T/C (dose: 8.0 mg/kg/injection, schedule: Q04DX003 (sc), vehicle: water): 25 % of control
- T/C (dose: 16.0 mg/kg/injection, schedule: Q04DX003 (sc), vehicle: saline): -86 % of control

Compound: Nc1ncnc2c1ncn2C1C=C(CO)C(O)C1O (stereo unspecified)
- T/C (dose: 3.75 mg/kg/injection, schedule: Q04DX003 (sc), vehicle: saline): 88 % of control
- T/C (dose: 7.5 mg/kg/injection, schedule: Q04DX003 (sc), vehicle: saline): 75 % of control
- T/C (dose: 15.0 mg/kg/injection, schedule: Q04DX003 (sc), vehicle: saline): 64 % of control

Compound: C(C#CCN1CCOCC1)#CCN1CCOCC1
- T/C [3]: 72 % of control
- T/C [4]: 84 % of control
- T/C (dose: 1200.0 mg/kg/injection, schedule: Q04DX003 (sc), vehicle: Klucel (hydroxypropylcellulose) (HPC)): 61 % of control

Compound: OCCN1CCN(CCCN2c3ccccc3Sc3ccc(C(F)(F)F)cc32)CC1
- T/C (dose: 30.0 mg/kg/injection, schedule: Q04DX003 (sc), vehicle: saline): 87 % of control
- T/C (dose: 60.0 mg/kg/injection, schedule: Q04DX003 (sc), vehicle: saline): 50 % of control and 71 % of control
- T/C (dose: 480.0 mg/kg/injection, schedule: Q04DX003 (sc), vehicle: saline): 36 % of control

Compound: O=C1C=CC(n2cc(F)c(=O)[nH]c2=O)O1 (stereo unspecified)
- T/C [1]: 104 % of control

Compound: COc1cc(C(=O)N/N=C/c2cccc([N+](=O)[O-])c2)cc(OC)c1OC
- T/C [5]: 178 % of control
- T/C [6]: 114 % of control
- T/C [7]: 67 % of control
- T/C [8]: 108 % of control

Compound: O=C(O)C1CC(O)CN1 (stereo unspecified)
- T/C (dose: 150.0 mg/kg/injection, schedule: Q04DX003 (sc), vehicle: saline): 67 % of control
- T/C (dose: 300.0 mg/kg/injection, schedule: Q04DX003 (sc), vehicle: saline): 120 % of control
- T/C (dose: 600.0 mg/kg/injection, schedule: Q04DX003 (sc), vehicle: saline): 91 % of control
- T/C (dose: 1200.0 mg/kg/injection, schedule: Q04DX003 (sc), vehicle: saline): 106 % of control

Compound: COc1cc(C(C)(C)C)cc(OC)c1C(O)(c1c(OC)cc(C(C)(C)C)cc1OC)c1c(OC)cc(C(C)(C)C)cc1OC
- T/C [7]: 212 % of control
- T/C [8]: 154 % of control
- T/C [9]: 207 % of control

Compound: O=C[C@@H](CO)O[C@H](C=O)c1c[nH]c(=O)[nH]c1=O
- T/C (dose: 18.75 mg/kg/injection, schedule: Q04DX003 (ip), vehicle: saline): 91 % of control
- T/C (dose: 37.5 mg/kg/injection, schedule: Q04DX003 (ip), vehicle: saline): 59 % of control
- T/C (dose: 75.0 mg/kg/injection, schedule: Q04DX003 (ip), vehicle: saline): 35 % of control

Compound: N#Cc1ccc(NN=O)nc1
- T/C (dose: 12.5 mg/kg/injection, schedule: Q04DX003 (ip), vehicle: water): 110 % of control
- T/C (dose: 25.0 mg/kg/injection, schedule: Q04DX003 (ip), vehicle: water): 18 % of control
- T/C (dose: 50.0 mg/kg/injection, schedule: Q04DX003 (ip), vehicle: water): 18 % of control
- T/C (dose: 100.0 mg/kg/injection, schedule: Q04DX003 (ip), vehicle: water): 20 % of control

Compound: CC1(c2ccc(Cl)cc2)OC(=O)C(=Cc2ccc([N+](=O)[O-])s2)C(=O)O1 (stereo unspecified)
- T/C [6]: 122 % of control
- T/C [7]: 44 % of control
- T/C [8]: 26 % of control

Compound: CN(C)N=Nc1cccc(C(N)=O)c1
- T/C (dose: 25.0 mg/kg/injection, schedule: Q04DX003 (sc), vehicle: Klucel (hydroxypropylcellulose) (HPC)): 100 % of control
- T/C (dose: 50.0 mg/kg/injection, schedule: Q04DX003 (sc), vehicle: Klucel (hydroxypropylcellulose) (HPC)): 52 % of control and 59 % of control and 64 % of control
- T/C [2]: 4 % of control

Compound: COc1ccc(OC)c(Cc2cnc3nc(N)nc(N)c3c2C)c1
- T/C (dose: 75.0 mg/kg/injection, schedule: Q04DX003 (sc), vehicle: water): 73 % of control
- T/C (dose: 150.0 mg/kg/injection, schedule: Q04DX003 (sc), vehicle: water): 56 % of control
- T/C [10]: 53 % of control
- T/C [11]: 62 % of control

Compound: c1cc2c(c(CC3CO3)c1CC1CO1)OCCOCCOCCOCCO2 (stereo unspecified)
- T/C (dose: 75.0 mg/kg/injection, schedule: Q04DX003 (ip), vehicle: saline + alcohol): 57 % of control
- T/C (dose: 150.0 mg/kg/injection, schedule: Q04DX003 (ip), vehicle: saline + alcohol): 65 % of control
- T/C (dose: 300.0 mg/kg/injection, schedule: Q04DX003 (ip), vehicle: saline + alcohol): 78 % of control

Compound: CC(C)[C@](O)(C(=O)OCC1=CCN2CC[C@@H](O)[C@@H]12)[C@H](C)O
- T/C [10]: 56 % of control
- T/C [11]: 65 % of control
- T/C (dose: 1200.0 mg/kg/injection, schedule: Q04DX003 (sc), vehicle: water): 53 % of control
- T/C (dose: 2400.0 mg/kg/injection, schedule: Q04DX003 (sc), vehicle: water): 51 % of control

Compound: Nc1cc2c3c(cccc3c1)C(=O)N(CCN1CCCC1)C2=O
- T/C (dose: 25.0 mg/kg/injection, schedule: Q04DX003 (sc), vehicle: saline with Tween-80): 60 % of control
- T/C (dose: 50.0 mg/kg/injection, schedule: Q04DX003 (sc), vehicle: saline with Tween-80): 60 % of control
- T/C (dose: 100.0 mg/kg/injection, schedule: Q04DX003 (sc), vehicle: saline with Tween-80): 120 % of control
- T/C (dose: 200.0 mg/kg/injection, schedule: Q04DX003 (sc), vehicle: saline with Tween-80): 119 % of control

Compound: Cc1cc(NCCCCCCCNc2cc(C)nc3cc(N)ccc23)c2ccc(N)cc2n1
- T/C (dose: 12.5 mg/kg/injection, schedule: Q01DX010 (sc), vehicle: saline with Tween-80): 53 % of control and 56 % of control and 72 % of control

Compound: O=S1(=O)CS(=O)(=O)OCCO1
- T/C (dose: 37.5 mg/kg/injection, schedule: Q04DX003 (sc), vehicle: Klucel (hydroxypropylcellulose) (HPC)): 25 % of control
- T/C [1]: 42 % of control
- T/C [2]: 7 % of control

Compound: CN(C)N=Nc1ccccc1
- T/C (dose: 100.0 mg/kg/injection, schedule: Q04DX003 (sc), vehicle: Klucel (hydroxypropylcellulose) (HPC)): 36 % of control

Compound: Nc1nc(N)c2c(ccc3c2ccn3Cc2cccc([N+](=O)[O-])c2)n1
- T/C (dose: 37.5 mg/kg/injection, schedule: Q04DX003 (sc), vehicle: saline with Tween-80): 98 % of control
- T/C (dose: 75.0 mg/kg/injection, schedule: Q04DX003 (sc), vehicle: saline with Tween-80): 94 % of control

Compound: C=C1C(=O)OCC2C(C(=O)O)=CC3C(C)C(C)=CC123 (stereo unspecified)
- T/C (dose: 6.25 mg/kg/injection, schedule: Q01DX010 (sc), vehicle: Klucel (hydroxypropylcellulose) (HPC)): 78 % of control
- T/C (dose: 12.5 mg/kg/injection, schedule: Q01DX010 (sc), vehicle: Klucel (hydroxypropylcellulose) (HPC)): 113 % of control

Compound: CO[C@H](/C(C)=C/C=C/C(C)=C/c1coc(C)n1)[C@H](C)[C@H]1C[C@@H](O)[C@@]2(C)O[C@H]2/C=C/[C@@H](C)[C@@H]2C[C@@H](CC(=O)O2)C[C@H]2O[C@@H]2C(=O)O1
- T/C (dose: 0.25 mg/kg/injection, schedule: Q04DX003 (ip), vehicle: Klucel (hydroxypropylcellulose) (HPC)): 34 % of control
- T/C (dose: 0.5 mg/kg/injection, schedule: Q04DX003 (ip), vehicle: Klucel (hydroxypropylcellulose) (HPC)): 2 % of control
- T/C (dose: 1.0 mg/kg/injection, schedule: Q04DX003 (ip), vehicle: Klucel (hydroxypropylcellulose) (HPC)): 3 % of control
- T/C (dose: 2.0 mg/kg/injection, schedule: Q04DX003 (ip), vehicle: Klucel (hydroxypropylcellulose) (HPC)): -26 % of control

Compound: [I][Hg][CH2]C1COC([CH2][Hg][I])CO1 (stereo unspecified)
- T/C [6]: 86 % of control
- T/C [7]: 77 % of control
- T/C [8]: 115 % of control
- T/C [9]: 82 % of control

Compound: CC1(CO)C(O)CCC2(C)C1CCC1CC3CC12CCC3(O)CO (stereo unspecified)
- T/C (dose: 50.0 mg/kg/injection, schedule: Q01DX010 (sc), vehicle: saline with Tween-80): 56 % of control
- T/C (dose: 100.0 mg/kg/injection, schedule: Q01DX010 (sc), vehicle: saline with Tween-80): 38 % of control

Compound: Cc1ccc2nc(-c3ccc4nc(-c5ccc(N=Nc6ccc(-c7nc8ccc(-c9nc%10ccc(C)c(S(=O)(=O)O)c%10s9)cc8s7)cc6)cc5)sc4c3)sc2c1S(=O)(=O)O
- T/C (dose: 200.0 mg/kg/injection, schedule: Q04DX003 (sc), vehicle: suspension in saline): 90 % of control
- T/C (dose: 400.0 mg/kg/injection, schedule: Q04DX003 (sc), vehicle: suspension in saline): 90 % of control

Compound: CCN(CC)c1ccc2[nH]c3c(C(N)=O)cc(=O)c(=O)c=3oc2c1
- T/C [5]: 88 % of control
- T/C [6]: 84 % of control
- T/C [8]: 101 % of control
